Results from patent publication US20250074891A1 (Anaxis Pharma Pty Ltd., priority 2021, published 2025).

Legend:
Settings in all cases: Table 35
RIP1 = RIP1 (Homo sapiens (Human), UniProt Q13546); assay: KINOMEscan binding assay, RIP1
MLKL (full length) = MLKL (full length) (Homo sapiens (Human), UniProt Q8NB16); assay: KINOMEscan binding assay, MLKL (full length)
Protocol: (§1) Kinase assays. For most assays, kinase-tagged T7 phage strains were grown in parallel in 24-well blocks in an E. coli host derived from the BL21 strain. E. coli were grown to log-phase and infected with T7 phage from a frozen stock (multiplicity of infection=0.4) and incubated with shaking at 32° C. until lysis (90-150 minutes).
(§2) The Hill Slope was set to −1.

RIP3 = RIP3 (Homo sapiens (Human), UniProt Q9Y572); assay: KINOMEscan binding assay, RIP3
Sequence of RIP3 (Q9Y572 whole entry): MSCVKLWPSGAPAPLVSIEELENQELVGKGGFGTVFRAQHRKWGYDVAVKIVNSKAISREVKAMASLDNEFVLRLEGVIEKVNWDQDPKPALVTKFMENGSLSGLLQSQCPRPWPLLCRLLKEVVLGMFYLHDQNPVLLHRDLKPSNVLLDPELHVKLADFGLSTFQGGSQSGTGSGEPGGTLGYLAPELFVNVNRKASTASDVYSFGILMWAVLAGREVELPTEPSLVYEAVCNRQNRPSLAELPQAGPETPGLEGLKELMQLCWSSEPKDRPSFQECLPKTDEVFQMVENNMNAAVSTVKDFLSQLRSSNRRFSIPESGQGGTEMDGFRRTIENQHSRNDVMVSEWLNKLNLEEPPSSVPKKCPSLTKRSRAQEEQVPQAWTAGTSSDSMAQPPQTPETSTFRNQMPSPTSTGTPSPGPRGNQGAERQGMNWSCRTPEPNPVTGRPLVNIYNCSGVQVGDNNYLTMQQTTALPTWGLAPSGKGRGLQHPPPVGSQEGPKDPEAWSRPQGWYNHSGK
Protocol: as §1, §2

Sequence of RIP1 (Q13546 whole entry): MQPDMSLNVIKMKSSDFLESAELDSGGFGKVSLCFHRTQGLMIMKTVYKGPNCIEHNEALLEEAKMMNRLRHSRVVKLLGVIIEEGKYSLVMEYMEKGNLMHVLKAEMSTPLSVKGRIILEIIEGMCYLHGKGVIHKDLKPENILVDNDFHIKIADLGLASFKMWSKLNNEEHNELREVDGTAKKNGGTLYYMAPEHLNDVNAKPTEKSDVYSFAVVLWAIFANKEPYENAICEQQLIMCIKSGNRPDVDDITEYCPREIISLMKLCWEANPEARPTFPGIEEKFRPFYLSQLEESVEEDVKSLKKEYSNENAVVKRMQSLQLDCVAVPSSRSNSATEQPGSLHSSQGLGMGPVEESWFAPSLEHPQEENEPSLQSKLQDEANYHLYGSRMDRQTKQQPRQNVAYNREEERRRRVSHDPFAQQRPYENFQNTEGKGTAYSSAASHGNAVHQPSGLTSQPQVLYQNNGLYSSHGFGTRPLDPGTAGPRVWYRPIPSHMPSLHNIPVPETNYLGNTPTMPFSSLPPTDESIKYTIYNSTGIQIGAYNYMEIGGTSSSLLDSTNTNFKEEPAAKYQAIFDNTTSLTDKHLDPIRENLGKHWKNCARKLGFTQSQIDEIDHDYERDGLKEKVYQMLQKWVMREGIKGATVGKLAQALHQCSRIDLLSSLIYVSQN
Sequence of MLKL (full length) (Q8NB16 whole entry): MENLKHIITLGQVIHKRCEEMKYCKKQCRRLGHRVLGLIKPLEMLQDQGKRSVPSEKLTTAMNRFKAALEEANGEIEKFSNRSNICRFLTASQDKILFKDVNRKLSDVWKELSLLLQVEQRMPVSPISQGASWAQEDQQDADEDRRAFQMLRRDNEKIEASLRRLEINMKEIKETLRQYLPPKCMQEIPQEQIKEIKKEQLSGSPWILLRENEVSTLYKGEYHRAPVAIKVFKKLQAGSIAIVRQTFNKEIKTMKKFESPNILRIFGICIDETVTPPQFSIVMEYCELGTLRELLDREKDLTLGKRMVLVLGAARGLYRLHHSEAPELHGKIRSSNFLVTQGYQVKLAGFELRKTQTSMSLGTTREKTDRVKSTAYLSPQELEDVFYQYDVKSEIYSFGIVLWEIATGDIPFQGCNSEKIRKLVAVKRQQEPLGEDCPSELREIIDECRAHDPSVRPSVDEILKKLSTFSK

| Structure (SMILES) | Kd (RIP1) [µM] | Kd (MLKL (full length)) [µM] | Kd (RIP3) [µM] |
| --- | --- | --- | --- |
| CCS(=O)(=O)Nc1ccc(-c2n[nH]c(Nc3cnccn3)c2C(N)=O)cc1OC1CCCc2ccccc21 (stereo not drawn) [Compound 232, 3-[4-ethanesulfonamido-3-(1,2,3,4-tetrahydronaphthalen-1-yloxy)phenyl]-5-[(pyrazin-2-yl)amino]-1H-pyrazole-4-carboxamide] | > 30 | < 0.01 | > 30 |
| NC(=O)c1c(-c2ccc(NS(=O)(=O)CC(F)(F)F)c(OCc3ccc(Cl)cc3)c2)n[nH]c1Nc1cnc(C(F)(F)F)cn1 [Compound 234, 3-{3-[(4-chlorophenyl)methoxy]-4-(2,2,2-trifluoroethanesulfonamido)phenyl}-5-{[5-(trifluoromethyl)pyrazin-2-yl]amino}-1H-pyrazole-4-carboxamide] | > 30 | < 0.01 | > 30 |
| NC(=O)c1c(-c2ccc(NS(=O)(=O)C(F)F)c(OCc3ccc(Cl)cc3)c2)n[nH]c1Nc1cnc(C(F)(F)F)cn1 [Compound 235, 3-(3-((4-chlorobenzyl)oxy)-4-((difluoromethyl)sulfonamido)phenyl)-5-((5-(trifluoromethyl)pyrazin-2-yl)amino)-1H-pyrazole-4-carboxamide] | > 30 | < 0.01 | > 30 |
| NC(=O)c1c(-c2ccc(NS(=O)(=O)C(F)F)c(OC(c3ccc(F)cc3)C3CCC3)c2)n[nH]c1Nc1cnccn1 (stereo not drawn) [Compound 236, 3-{3-[cyclobutyl(4-fluorophenyl)methoxy]-4-(difluoromethanesulfonamido)phenyl}-5-[(pyrazin-2-yl)amino]-1H-pyrazole-4-carboxamide] | > 30 | < 0.01 | > 30 |
| N#Cc1cccc(Nc2[nH]nc(-c3ccc(NS(=O)(=O)CC(F)(F)F)cc3)c2C(N)=O)n1 [Compound 237, 5-[(6-cyanopyridin-2-yl)amino]-3-[4-(2,2,2-trifluoroethanesulfonamido)phenyl]-1H-pyrazole-4-carboxamide] | > 30 | < 0.01 | > 30 |
| NC(=O)c1c(-c2ccc(NS(=O)(=O)CC(F)(F)F)c(OCc3ccc(F)cc3)c2)n[nH]c1Nc1ccccn1 [Compound 239, 3-{3-[(4-fluorophenyl)methoxy]-4-(2,2,2-trifluoroethanesulfonamido)phenyl}-5-[(pyridin-2-yl)amino]-1H-pyrazole-4-carboxamide] | > 30 | < 0.01 | > 30 |
| NC(=O)c1c(-c2ccc(NS(=O)(=O)CC(F)(F)F)c(OCc3ccc(F)cn3)c2)n[nH]c1Nc1ccccn1 [Compound 240, 3-{3-[(5-fluoropyridin-2-yl)methoxy]-4-(2,2,2-trifluoroethanesulfonamido)phenyl}-5-[(pyridin-2-yl)amino]-1H-pyrazole-4-carboxamide] | > 30 | < 0.01 | > 30 |
| CCS(=O)(=O)Nc1ccc(-c2n[nH]c(Nc3ccccn3)c2C(N)=O)cc1OCc1ccc(F)cn1 [Compound 241, 3-{4-ethanesulfonamido-3-[(5-fluoropyridin-2-yl)methoxy]phenyl}-5-[(pyridin-2-yl)amino]-1H-pyrazole-4-carboxamide] | > 30 | < 0.01 | > 30 |
| CCS(=O)(=O)Nc1ccc(-c2n[nH]c(Nc3cnccn3)c2C(N)=O)cc1OCc1ccc(Cl)cn1 [Compound 242, 3-{3-[(5-chloropyridin-2-yl)methoxy]-4-ethanesulfonamidophenyl}-5-[(pyrazin-2-yl)amino]-1H-pyrazole-4-carboxamide] | > 30 | < 0.01 | > 30 |
| Cc1cnc(Nc2[nH]nc(-c3ccc(NS(=O)(=O)C(F)F)c(O[C@@H](C)c4ccc(F)cc4)c3)c2C(N)=O)cn1 [Compound 245, 3-[4-(difluoro-methanesulfon-amido)-3-[(1S)-1-(4-fluorophenyl)ethoxy]phenyl]-5-[(5-methylpyrazin-2-yl)amino]-1H-pyrazole-4-carboxamide] | > 30 | < 0.01 | > 30 |
| NC(=O)c1c(-c2ccc(NS(=O)(=O)C(F)F)c(OCc3ccc(F)cc3)c2)n[nH]c1Nc1cnc(C(F)(F)F)cn1 [Compound 246, 3-[4-(difluoromethanesulfonamido)-3-[(4-fluorophenyl)methoxy]phenyl]-5-{[5-(trifluoromethyl)pyrazin-2-yl]amino}-1H-pyrazole-4-carboxamide] | > 30 | < 0.01 | > 30 |
| C[C@H](Oc1cc(-c2n[nH]c(Nc3cccc(C(F)(F)F)n3)c2C(N)=O)ccc1NS(=O)(=O)CC(F)(F)F)c1ccc(F)cc1 [Compound 249, 3-{3-[(1S)-1-(4-fluorophenyl)ethoxy]-4-(2,2,2-trifluoroethane-sulfonamido)phenyl}-5-{[6-(trifluoromethyl)pyridin-2-yl]amino}-1H-pyrazole-4-carboxamide] | > 30 | < 0.01 | > 30 |
| C[C@H](Oc1cc(-c2n[nH]c(Nc3cnccn3)c2C(N)=O)ccc1NS(=O)(=O)C(F)F)c1ccc(Cl)cc1 [Compound 252, 3-{3-[(1S)-1-(4-chlorophenyl)ethoxy]-4-(difluoromethanesulfonamido)phenyl}-5-[(pyrazin-2-yl)amino]-1H-pyrazole-4-carboxamide] | > 30 | < 0.01 | > 30 |
| C[C@H](Oc1cc(-c2c(C(N)=O)c(Nc3cnccn3)nn2C)ccc1NS(=O)(=O)C(F)F)c1ccc(F)cc1 [Compound 253, 5-[4-(difluoromethanesulfonamido)-3-[(1S)-1-(4-fluorophenyl)ethoxy]phenyl]-1-methyl-3-[(pyrazin-2-yl)amino]-1H-pyrazole-4-carboxamide] | > 30 | < 0.01 | > 30 |
| C[C@H](Oc1cc(-c2n[nH]c(Nc3cnccn3)c2C(N)=O)ccc1NS(=O)(=O)CC(F)(F)F)c1cccc(Cl)c1 [Compound 256, 3-{3-[(1S)-1-(3-chlorophenyl)ethoxy]-4-(2,2,2-trifluoroethane-sulfonamido)phenyl}-5-[(pyrazin-2-yl)amino]-1H-pyrazole-4-carboxamide] | > 30 | < 0.01 | > 30 |

Next, values leading:

| Kd (RIP1) [µM] | Kd (MLKL (full length)) [µM] | Kd (RIP3) [µM] | Structure (SMILES) |
| --- | --- | --- | --- |
| > 30 | < 0.01 | > 30 | CCS(=O)(=O)Nc1ccc(-c2n[nH]c(Nc3cnccn3)c2C(N)=O)cc1OCCc1cccc(F)c1 [Compound 219, 3-(4-(ethylsulfonamido)-3-(3-fluorophenethoxy)phenyl)-5-(pyrazin-2-ylamino)-1H-pyrazole-4-carboxamide] |
| > 30 | < 0.01 | > 30 | COCCOc1cc(Nc2[nH]nc(-c3ccc(NS(=O)(=O)N(C)C)cc3)c2C(N)=O)ccn1 [Compound 221, 3-(4-((N,N-dimethylsulfamoyl)amino)phenyl)-5-((2-(2-methoxyethoxy)pyridin-4-yl)amino)-1H-pyrazole-4-carboxamide] |
| > 30 | < 0.01 | > 30 | C[C@H](Oc1cc(-c2n[nH]c(Nc3cnccn3)c2C(N)=O)ccc1NS(=O)(=O)C(F)F)c1ccc(F)cc1 [Compound 223, 3-[4-(difluoromethanesulfonamido)-3-[(1S)-1-(4-fluorophenyl)ethoxy]phenyl]-5-[(pyrazin-2-yl)amino]-1H-pyrazole-4-carboxamide] |
| > 30 | < 0.01 | > 30 | NC(=O)c1c(-c2ccc(NS(=O)(=O)CC(F)(F)F)c(OCc3ccc(F)c(Cl)c3)c2)n[nH]c1Nc1cnccn1 [Compound 225, 3-{3-[(3-chloro-4-fluorophenyl)methoxy]-4-(2,2,2-trifluoroethane-sulfonamido)phenyl}-5-[(pyrazin-2-yl)amino]-1H-pyrazole-4-carboxamide] |
| > 30 | < 0.01 | > 30 | NC(=O)c1c(-c2ccc(NS(=O)(=O)C(F)F)c(OCc3ccc(F)c(F)c3)c2)n[nH]c1Nc1ccccn1 [Compound 226] |
| > 30 | < 0.01 | > 30 | NC(=O)c1c(-c2ccc(NS(=O)(=O)CC(F)(F)F)c(OCc3ccccn3)c2)n[nH]c1Nc1cnccn1 [Compound 227, 5-[(pyrazin-2-yl)amino]-3-{3-[(pyridin-2-yl)methoxy]-4-(2,2,2-trifluoroethanesulfonamido)phenyl}-1H-pyrazole-4-carboxamide] |
| > 30 | < 0.01 | > 30 | CCS(=O)(=O)Nc1ccc(-c2n[nH]c(Nc3cnccn3)c2C(N)=O)cc1OC(C)(C)c1ccc(F)cc1 [Compound 228, 3-(4-ethanesulfonamido-3-{[2-(4-fluorophenyl)propan-2-yl]oxy}phenyl)-5-[(pyrazin-2-yl)amino]-1H-pyrazole-4-carboxamide] |
| > 30 | < 0.01 | > 30 | C[C@H](Oc1cc(-c2n[nH]c(Nc3cccc(C(F)(F)F)n3)c2C(N)=O)ccc1NS(=O)(=O)C(F)F)c1ccc(F)cc1 [Compound 229, 3-[4-(difluoromethanesulfonamido)-3-[(1S)-1-(4-fluorophenyl)ethoxy]phenyl]-5-{[6-(trifluoromethyl)pyridin-2-yl]amino}-1H-pyrazole-4-carboxamide] |
| > 30 | < 0.01 | > 30 | CCS(=O)(=O)Nc1ccc(-c2n[nH]c(Nc3cnccn3)c2C(N)=O)cc1O[C@@H](C)c1ccccn1 [Compound 230, 3-{4-ethanesulfonamido-3-[(1S)-1-(pyridin-2-yl)ethoxy]phenyl}-5-[(pyrazin-2-yl)amino]-1H-pyrazole-4-carboxamide] |
| > 30 | < 0.01 | > 30 | NC(=O)c1c(-c2ccc(NS(=O)(=O)CC(F)(F)F)c(OCc3ccc(F)cn3)c2)n[nH]c1Nc1cnccn1 [Compound 231, 3-(3-((5-fluoropyridin-2-yl)methoxy)-4-((2,2,2-trifluoroethyl)sulfonamido)phenyl)-5-(pyrazin-2-ylamino)-1H-pyrazole-4-carboxamide] |
